In US11976061B2, “Preparation of benzimidazolone derivatives as novel diacylglyceride O-acyltransferase 2 inhibitors” (Merck Sharp & Dohme LLC, priority 2020, dated 2024):
pIC50: −log10 of the molar value.

The compounds below were run against T1, human DGAT2 (hDGAT2) (Homo sapiens, UniProt Q96PD7) (assay: DGAT2 Enzymatic Activity Assay). Conditions: membrane prep of Sf-9 cells expressing hDGAT2; 25 μM diolein, 5 μM 13C oleoyl-CoA; 13C18-triolein by LC/MS/MS; read-out: DGAT2 IC50.
T1 construct: made in house; host or cells: Sf-9 insect cells (baculovirus), membrane fraction
T1 sequence (Q96PD7 1-388): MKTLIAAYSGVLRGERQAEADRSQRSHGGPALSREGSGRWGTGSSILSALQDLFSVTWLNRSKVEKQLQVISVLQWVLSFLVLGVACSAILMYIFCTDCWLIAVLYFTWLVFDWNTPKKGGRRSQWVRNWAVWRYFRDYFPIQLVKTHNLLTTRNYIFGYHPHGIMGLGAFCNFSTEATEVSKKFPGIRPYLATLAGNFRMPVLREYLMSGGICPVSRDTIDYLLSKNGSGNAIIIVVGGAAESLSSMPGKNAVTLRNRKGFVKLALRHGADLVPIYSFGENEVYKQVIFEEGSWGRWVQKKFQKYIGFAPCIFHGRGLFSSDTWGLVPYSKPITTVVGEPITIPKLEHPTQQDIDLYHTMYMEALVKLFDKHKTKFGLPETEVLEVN
Type: biochemical
Method: Insect Cell Expression and Membrane Preparation
Sf-9 insect cells were maintained in Grace's insect cell culture medium with 10% heated-inactivated fetal bovine serum, 1% Pluronic F-68 and 0.14 μg/ml Kanamycine sulfate at 27° C. in a shaker incubator. After infection with untagged baculovirus expressing human DGAT2 (hDGAT2) at multiplicity of infection (MOI) 3 for 48 hours, cells were harvested. Cell pellets were suspended in buffer containing 10 mM Tris-HCl pH 7.5, 1 mM EDTA, 250 mM sucrose and Complete Protease Inhibitor Cocktail (Sigma Aldrich), and sonicated on ice. Cell debris were removed by centrifugation at 2000×g for 15 minutes. Membrane fractions were isolated by ultracentrifugation (100,000×g), resuspended in the same buffer, and frozen (−80° C.) for later use. The protein concentration was determined with the Pierce™ BCA Protein Assay Kit (Thermo Fisher Scientific). Expression of protein levels was analyzed by immunoblotting with rabbit anti-DGAT2 antibody (Abcam, ab102831) and donkey anti-rabbit IgG H&L Alexa Fluor® 647 (Abcam, ab150075) followed by detection using Typhoon FLA9000 (GE Healthcare).
LC/MS/MS analyses were performed using Thermal Fisher's LX4-TSQ Vantage system. This system consists of an Agilent binary high-performance liquid chromatography (HPLC) pump and a TSQ Vantage triple quadrupole MS/MS instrument. For each sample, 2 μL samples from the top organic layer of in-plate liquid-liquid extraction were injected onto a Thermo Betabasic C4 column (2.1 mm×20 mm, 5 μm particle size). The samples were then eluted using the following conditions; mobile phase: Isopropanol:acetonitrile/10 mM ammonium formate=50/35/15 (v/v/v), flow rate: 0.8 mL/min, temperature: 25° C. Data was acquired in positive mode using a heated electrospray ionization (HESI) interface. The operational parameters for the TSQ Vantage MS/MS instrument were a spray voltage of 3000 V, capillary temperature of 280° C., vaporizer temperature 400° C., sheath gas 45 arbitrary unit, Aux gas 10 arbitrary units, S-lens 165 and collision gas 1.0 mTorr. […] (SRM) chromatograms of ^13C18-triolein (Q1: 920.8>Q3: 621.3) and internal standard ^13C21-triolein (Q1: 923.8>Q3: 617.3) were collected for 33 sec. The peak area was integrated by Xcalibur Quan software. The ratio between the ^13C18triolein generated in the reaction and spiked in internal standard ^13C21-triolein was used to generate percentage inhibition and IC50 values. Compound percentage inhibition was calculated by the following formula: Inhibition %=1−[(compound response−low control)/(high control−low control)]×100%. Potent compounds were titrated and IC50 were calculated by 4 parameter sigmoidal curve fitting formula.
DGAT2 Enzymatic Activity Assay
DGAT2 activity was determined by measuring the amount of enzymatic product ^13C18-triolein (^13C-1,2,3-Tri(cis-9-octadecenoyl)glycerol) using the membrane prep mentioned above. The assay was carried out in ABgene 384-well assay plates in a final volume of 25 μL at rt. The assay mixture contained the following: assay buffer (100 mM Tris·Cl, pH 7.0, 20 mM MgCl2, 5% ethanol), 25 μM of diolein, 5 μM of ^13C oleoyl-CoA and 8 ng/μL of DGAT2 membrane.
`CC(C(F)F)n1c(=O)n(-c2cccc(OC(F)F)c2)c2ccc(C(=O)NC3(C)CCS(=O)(=O)CC3)cc21` (single isomer, unassigned) [Example 45a, 1-(3-(Difluoromethoxy)phenyl)-3-(1,1-difluoropropan-2-yl)-N-(4-methyl-1,1-dioxidotetrahydro-2H-thiopyran-4-yl)-2-oxo-2,3-dihydro-1H-benzo[d]imidazole-5-carboxamide] showed a pIC50 of 7.92.
In the case of `CC(C(F)F)n1c(=O)n(-c2cccc(OC(F)F)c2)c2ccc(C(=O)NC3(C)CCS(=O)(=O)CC3)cc21` (single isomer, unassigned) [Example 45b, 1-(3-(Difluoromethoxy)phenyl)-3-(1,1-difluoropropan-2-yl)-N-(4-methyl-1,1-dioxidotetrahydro-2H-thiopyran-4-yl)-2-oxo-2,3-dihydro-1H-benzo[d]imidazole-5-carboxamide], the pIC50 was 7.00.
`CCC(C)n1c(=O)n(-c2cccc(OC(F)F)c2)c2ccc(C(=O)NC3(C)CS(=O)(=O)C3)cc21` (single isomer, unassigned) [Example 46a, 3-(sec-butyl)-1-(3-(difluoromethoxy)phenyl)-N-(3-methyl-1,1-dioxidothietan-3-yl)-2-oxo-2,3-dihydro-1H-benzo[d]imidazole-5-carboxamide] showed a pIC50 of 7.09.
`CCC(C)n1c(=O)n(-c2cccc(OC(F)F)c2)c2ccc(C(=O)NC3(C)CS(=O)(=O)C3)cc21` (single isomer, unassigned) [Example 46b, 3-(sec-butyl)-1-(3-(difluoromethoxy)phenyl)-N-(3-methyl-1,1-dioxidothietan-3-yl)-2-oxo-2,3-dihydro-1H-benzo[d]imidazole-5-carboxamide] gave a pIC50 of 7.04.
Work on `CC(n1c(=O)n(-c2cc(OC(F)F)ccc2F)c2ccc(C(=O)NC3(C)CCS(=O)(=O)CC3)cc21)C(C)(C)O` (single isomer, unassigned) [Example 66a, 1-(5-(difluoromethoxy)-2-fluorophenyl)-3-(3-hydroxy-3-methylbutan-2-yl)-N-(4-methyl-1,1-dioxidotetrahydro-2H-thiopyran-4-yl)-2-oxo-2,3-dihydro-1H-benzo[d]imidazole-5-carboxamide] yielded a pIC50 of 8.96.
Work on `CC(n1c(=O)n(-c2cc(OC(F)F)ccc2F)c2ccc(C(=O)NC3(C)CCS(=O)(=O)CC3)cc21)C(C)(C)O` (single isomer, unassigned) [Example 66b, 1-(5-(difluoromethoxy)-2-fluorophenyl)-3-(3-hydroxy-3-methylbutan-2-yl)-N-(4-methyl-1,1-dioxidotetrahydro-2H-thiopyran-4-yl)-2-oxo-2,3-dihydro-1H-benzo[d]imidazole-5-carboxamide] yielded a pIC50 of 7.77.
`CC(n1c(=O)n(-c2cccc(OC(F)F)c2)c2ccc(C(=O)NC3(C)CCS(=O)(=O)CC3)cc21)C(C)(C)O` (single isomer, unassigned) [Example 67a, 1-(3-(difluoromethoxy)phenyl)-3-(3-hydroxy-3-methylbutan-2-yl)-N-(4-methyl-1,1-dioxidotetrahydro-2H-thiopyran-4-yl)-2-oxo-2,3-dihydro-1H-benzo[d]imidazole-5-carboxamide] gave a pIC50 of 8.80.
In the case of `CC(n1c(=O)n(-c2cccc(OC(F)F)c2)c2ccc(C(=O)NC3(C)CCS(=O)(=O)CC3)cc21)C(C)(C)O` (single isomer, unassigned) [Example 67b, 1-(3-(difluoromethoxy)phenyl)-3-(3-hydroxy-3-methylbutan-2-yl)-N-(4-methyl-1,1-dioxidotetrahydro-2H-thiopyran-4-yl)-2-oxo-2,3-dihydro-1H-benzo[d]imidazole-5-carboxamide], the pIC50 was 6.68.
`CC(n1c(=O)n(-c2cccc(OCC(F)F)c2)c2ccc(C(=O)NC3(C)CCS(=O)(=O)CC3)cc21)C(C)(C)O` (single isomer, unassigned) [Example 68a, 1-(3-(2,2-difluoroethoxy)phenyl)-3-(3-hydroxy-3-methylbutan-2-yl)-N-(4-methyl-1,1-dioxidotetrahydro-2H-thiopyran-4-yl)-2-oxo-2,3-dihydro-1H-benzo[d]imidazole-5-carboxamide] showed a pIC50 of 8.39.
Work on `CC(n1c(=O)n(-c2cccc(OCC(F)F)c2)c2ccc(C(=O)NC3(C)CCS(=O)(=O)CC3)cc21)C(C)(C)O` (single isomer, unassigned) [Example 68b, 1-(3-(2,2-difluoroethoxy)phenyl)-3-(3-hydroxy-3-methylbutan-2-yl)-N-(4-methyl-1,1-dioxidotetrahydro-2H-thiopyran-4-yl)-2-oxo-2,3-dihydro-1H-benzo[d]imidazole-5-carboxamide] yielded a pIC50 of 8.74.
Compound `CCOc1cc(-n2c(=O)n(C(C)C(C)(C)O)c3cc(C(=O)NC4(C)CCS(=O)(=O)CC4)ccc32)c(F)cn1` (single isomer, unassigned) [Example 69a, 1-(2-ethoxy-5-fluoropyridin-4-yl)-3-(3-hydroxy-3-methylbutan-2-yl)-N-(4-methyl-1,1-dioxidotetrahydro-2H-thiopyran-4-yl)-2-oxo-2,3-dihydro-1H-benzo[d]imidazole-5-carboxamide] has a pIC50 of 8.01.
`CCOc1cc(-n2c(=O)n(C(C)C(C)(C)O)c3cc(C(=O)NC4(C)CCS(=O)(=O)CC4)ccc32)c(F)cn1` (single isomer, unassigned) [Example 69b, 1-(2-ethoxy-5-fluoropyridin-4-yl)-3-(3-hydroxy-3-methylbutan-2-yl)-N-(4-methyl-1,1-dioxidotetrahydro-2H-thiopyran-4-yl)-2-oxo-2,3-dihydro-1H-benzo[d]imidazole-5-carboxamide] was tested, and the pIC50 was 8.41.

Same assay, conditions: membrane prep of Sf-9 cells expressing hDGAT2; 25 μM diolein, 5 μM 13C oleoyl-CoA; 13C18-triolein by LC/MS/MS; read-out: Human DGAT2 IC50
Compound `CC(n1c(=O)n(-c2cc(OC(F)F)ccc2F)c2ccc(C(=O)NC3(C)CS(=O)(=O)C3)cc21)C(C)(C)O` (single isomer, unassigned) [EX-65a, 1-(5-(difluoromethoxy)-2-fluorophenyl)-3-(3-hydroxy-3-methylbutan-2-yl)-N-(3-methyl-1,1-dioxidothietan-3-yl)-2-oxo-2,3-dihydro-1H-benzo[d]imidazole-5-carboxamide] has a pIC50 of 7.28.
`CC(n1c(=O)n(-c2cc(OC(F)F)ccc2F)c2ccc(C(=O)NC3(C)CS(=O)(=O)C3)cc21)C(C)(C)O` (single isomer, unassigned) [EX-65b, 1-(5-(difluoromethoxy)-2-fluorophenyl)-3-(3-hydroxy-3-methylbutan-2-yl)-N-(3-methyl-1,1-dioxidothietan-3-yl)-2-oxo-2,3-dihydro-1H-benzo[d]imidazole-5-carboxamide] showed a pIC50 of 9.15.
Compound `CC(C(N)=O)n1c(=O)n(-c2cccc(OC(F)F)c2)c2ccc(C(=O)NC3(C)CCS(=O)(=O)CC3)cc21` (single isomer, unassigned) [EX-85a, 3-(1-amino-1-oxopropan-2-yl)-1-(3-(difluoromethoxy)phenyl)-N-(4-methyl-1,1-dioxidotetrahydro-2H-thiopyran-4-yl)-2-oxo-2,3-dihydro-1H-benzo[d]imidazole-5-carboxamide] has a pIC50 of 6.26.
Work on `CC(C(N)=O)n1c(=O)n(-c2cccc(OC(F)F)c2)c2ccc(C(=O)NC3(C)CCS(=O)(=O)CC3)cc21` (single isomer, unassigned) [EX-85b, 3-(1-amino-1-oxopropan-2-yl)-1-(3-(difluoromethoxy)phenyl)-N-(4-methyl-1,1-dioxidotetrahydro-2H-thiopyran-4-yl)-2-oxo-2,3-dihydro-1H-benzo[d]imidazole-5-carboxamide] yielded a pIC50 of 5.76.
